# Columns and labels:
# [1] = Stability study of Rosuvastatin calcium form M2 (plant batches, RT); type: physicochemical
# Experimental: According to still another embodiment of current invention, The form M2 is stable at 30° C. with 65% RH for 24 months & 40° C. with 75% RH for 6 months for all ICH/EP/USP grade.
# [2] = Stability study of Rosuvastatin calcium form M (30° C./65% RH and 40° C./75% RH); type: physicochemical
# Experimental: According to one more aspect of current invention, the form M is stable at 30° C. with 65% RH for 48 months & 40° C. with 75% RH for 6 months for all ICH/EP/USP grade.
# [3] = 40° C. with 75% RH for 6 months
substance,measurement,setting,value
"7-[4-(4-flurophenyl)-6-isopropyl-2-(N-methyl-N-methyl sulfonyl amino)-pyrimidin-5-yl]-(3R,5S)-dihydroxy-hept-6-enoic acid Calcium salt [form M2]",Stability,[1]; 30° C. with 65% RH for 24 months,stable
same,Stability,[1]; [3],stable
"7-[4-(4-flurophenyl)-6-isopropyl-2-(N-methyl-N-methylsulfonylamino)-pyrimidin-5-yl]-(3R,5S)-dihydroxy-hept-6-enoic acid Calcium salt [form M]",Stability,[2]; 30° C. with 65% RH for 48 months,stable
same,Assay (OAB),"[2]; 30° C./65% RH, 3 months",99.58 % w/w
same,Description,"[2]; 30° C./65% RH, 3 months",A white
same,Related Substances (HPLC) Individual Unknown Imp.,"[2]; 30° C./65% RH, 3 months",0.02%
same,Related Substances (HPLC) Lactone,"[2]; 30° C./65% RH, 3 months",0.05%
same,Related Substances (HPLC) RT-07,"[2]; 30° C./65% RH, 3 months",0.05%
same,Related Substances (HPLC) Total Imp.,"[2]; 30° C./65% RH, 3 months",0.16%
same,Water,"[2]; 30° C./65% RH, 3 months",5.30%
same,Assay (OAB),"[2]; 30° C./65% RH, 6 months",99.54 % w/w
same,Description,"[2]; 30° C./65% RH, 6 months",A white
same,Related Substances (HPLC) Individual Unknown Imp.,"[2]; 30° C./65% RH, 6 months",0.04%
same,Related Substances (HPLC) Lactone,"[2]; 30° C./65% RH, 6 months",0.04%
same,Related Substances (HPLC) RT-07,"[2]; 30° C./65% RH, 6 months",0.05%
same,Related Substances (HPLC) Total Imp.,"[2]; 30° C./65% RH, 6 months",0.14%
same,Water,"[2]; 30° C./65% RH, 6 months",5.43%
same,Assay (OAB),"[2]; 30° C./65% RH, 9 months",99.33 % w/w
same,Description,"[2]; 30° C./65% RH, 9 months",A white
same,Related Substances (HPLC) Individual Unknown Imp.,"[2]; 30° C./65% RH, 9 months",0.02%
same,Related Substances (HPLC) Lactone,"[2]; 30° C./65% RH, 9 months",0.04%
same,Related Substances (HPLC) RT-07,"[2]; 30° C./65% RH, 9 months",0.05%
same,Related Substances (HPLC) Total Imp.,"[2]; 30° C./65% RH, 9 months",0.14%
same,Water,"[2]; 30° C./65% RH, 9 months",5.44%
same,Assay (OAB),"[2]; 30° C./65% RH, 12 months",99.55 % w/w
same,Description,"[2]; 30° C./65% RH, 12 months",A white
same,Related Substances (HPLC) Anti-Isomer,"[2]; 30° C./65% RH, 12 months",0.04%
same,Related Substances (HPLC) Individual Unknown Imp.,"[2]; 30° C./65% RH, 12 months",0.02%
same,Related Substances (HPLC) Lactone,"[2]; 30° C./65% RH, 12 months",0.05%
same,Related Substances (HPLC) RT-07,"[2]; 30° C./65% RH, 12 months",0.06%
same,Related Substances (HPLC) Total Imp.,"[2]; 30° C./65% RH, 12 months",0.17%
same,Water,"[2]; 30° C./65% RH, 12 months",5.55%
same,Assay (OAB),"[2]; 30° C./65% RH, 18 months",99.70 % w/w
same,Description,"[2]; 30° C./65% RH, 18 months",A white
same,Related Substances (HPLC) Anti-Isomer,"[2]; 30° C./65% RH, 18 months",0.03%
same,Related Substances (HPLC) Individual Unknown Imp.,"[2]; 30° C./65% RH, 18 months",0.02%
same,Related Substances (HPLC) Lactone,"[2]; 30° C./65% RH, 18 months",0.04%
same,Related Substances (HPLC) RT-07,"[2]; 30° C./65% RH, 18 months",0.05%
same,Related Substances (HPLC) Total Imp.,"[2]; 30° C./65% RH, 18 months",0.16%
same,Water,"[2]; 30° C./65% RH, 18 months",5.57%
same,Assay (OAB),"[2]; 30° C./65% RH, 24 months",99.81 % w/w
same,Description,"[2]; 30° C./65% RH, 24 months",A white
same,Related Substances (HPLC) Anti-Isomer,"[2]; 30° C./65% RH, 24 months",0.04%
same,Related Substances (HPLC) Individual Unknown Imp.,"[2]; 30° C./65% RH, 24 months",0.02%
same,Related Substances (HPLC) Lactone,"[2]; 30° C./65% RH, 24 months",0.04%
same,Related Substances (HPLC) RT-07,"[2]; 30° C./65% RH, 24 months",0.05%
same,Related Substances (HPLC) Total Imp.,"[2]; 30° C./65% RH, 24 months",0.15%
same,Water,"[2]; 30° C./65% RH, 24 months",5.72%
same,Assay (OAB),"[2]; 30° C./65% RH, 36 months",99.75 % w/w
same,Description,"[2]; 30° C./65% RH, 36 months",A white
same,Related Substances (HPLC) Anti-Isomer,"[2]; 30° C./65% RH, 36 months",0.04%
same,Related Substances (HPLC) Individual Unknown Imp.,"[2]; 30° C./65% RH, 36 months",0.02%
same,Related Substances (HPLC) Lactone,"[2]; 30° C./65% RH, 36 months",0.04%
same,Related Substances (HPLC) RT-07,"[2]; 30° C./65% RH, 36 months",0.05%
same,Related Substances (HPLC) Total Imp.,"[2]; 30° C./65% RH, 36 months",0.16%
same,Water,"[2]; 30° C./65% RH, 36 months",5.74%
same,Assay (OAB),"[2]; 30° C./65% RH, 48 months",99.66 % w/w
same,Description,"[2]; 30° C./65% RH, 48 months",A white
same,Related Substances (HPLC) Anti-Isomer,"[2]; 30° C./65% RH, 48 months",0.05%
same,Related Substances (HPLC) Individual Unknown Imp.,"[2]; 30° C./65% RH, 48 months",0.02%
same,Related Substances (HPLC) Lactone,"[2]; 30° C./65% RH, 48 months",0.04%
same,Related Substances (HPLC) RT-07,"[2]; 30° C./65% RH, 48 months",0.05%
same,Related Substances (HPLC) Total Imp.,"[2]; 30° C./65% RH, 48 months",0.16%
same,Water,"[2]; 30° C./65% RH, 48 months",5.90%
same,Stability,[2]; [3],stable
same,Assay (OAB),"[2]; 40° C./75% RH, 1 month",100.03 % w/w
same,Description,"[2]; 40° C./75% RH, 1 month",A white
same,Related Substances (HPLC) Individual Unknown Imp.,"[2]; 40° C./75% RH, 1 month",0.03%
same,Related Substances (HPLC) Lactone,"[2]; 40° C./75% RH, 1 month",0.04%
same,Related Substances (HPLC) RT-07,"[2]; 40° C./75% RH, 1 month",0.05%
same,Related Substances (HPLC) Total Imp.,"[2]; 40° C./75% RH, 1 month",0.14%
same,Water,"[2]; 40° C./75% RH, 1 month",5.65%
same,Assay (OAB),"[2]; 40° C./75% RH, 2 months",99.93 % w/w
same,Description,"[2]; 40° C./75% RH, 2 months",A white
same,Related Substances (HPLC) Individual Unknown Imp.,"[2]; 40° C./75% RH, 2 months",0.02%
same,Related Substances (HPLC) Lactone,"[2]; 40° C./75% RH, 2 months",0.04%
same,Related Substances (HPLC) RT-07,"[2]; 40° C./75% RH, 2 months",0.05%
same,Related Substances (HPLC) Total Imp.,"[2]; 40° C./75% RH, 2 months",0.15%
same,Water,"[2]; 40° C./75% RH, 2 months",5.59%
same,Assay (OAB),"[2]; 40° C./75% RH, 3 months",100.03 % w/w
same,Description,"[2]; 40° C./75% RH, 3 months",A white
same,Related Substances (HPLC) Individual Unknown Imp.,"[2]; 40° C./75% RH, 3 months",0.02%
same,Related Substances (HPLC) Lactone,"[2]; 40° C./75% RH, 3 months",0.04%
same,Related Substances (HPLC) RT-07,"[2]; 40° C./75% RH, 3 months",0.05%
same,Related Substances (HPLC) Total Imp.,"[2]; 40° C./75% RH, 3 months",0.13%
same,Water,"[2]; 40° C./75% RH, 3 months",5.66%
same,Assay (OAB),"[2]; 40° C./75% RH, 6 months",99.59 % w/w
same,Description,"[2]; 40° C./75% RH, 6 months",A white
same,Related Substances (HPLC) Individual Unknown Imp.,"[2]; 40° C./75% RH, 6 months",0.02%
same,Related Substances (HPLC) Lactone,"[2]; 40° C./75% RH, 6 months",0.04%
same,Related Substances (HPLC) RT-07,"[2]; 40° C./75% RH, 6 months",0.04%
same,Related Substances (HPLC) Total Imp.,"[2]; 40° C./75% RH, 6 months",0.12%
same,Water,"[2]; 40° C./75% RH, 6 months",5.63%
same,Assay (OAB),[2]; Initial,100.08 % w/w
same,Description,[2]; Initial,A white
same,Related Substances (HPLC) Individual Unknown Imp.,[2]; Initial,0.02%
same,Related Substances (HPLC) Lactone,[2]; Initial,0.02%
same,Related Substances (HPLC) RT-07,[2]; Initial,0.05%
same,Related Substances (HPLC) Total Imp.,[2]; Initial,0.13%
same,Water,[2]; Initial,5.06%

# Reference: patent publication US10626093B2, “Polymorphic form of crystalline rosuvastatin calcium and novel processes for crystalline as well as amorphous rosuvastatin calcium” (MOREPEN LABORATORIES LIMITED, priority 2016, dated 2020)
